Read-outs that look alike come from different tables or passages of the source.
What was measured:
M. bovis BCG = test: microbe, parasite or virus in culture; format: cell-based, Mycobacterium bovis BCG; conditions: for log reduction at 25 µM: Mycobacterium tuberculosis variant bovis BCG, BCG, 96 h, read-out: BCG killing (25 μM); for reduction of colony forming units (CFU): cells exposed to DETA-NO 50 μM
α-chymotrypsin = α-chymotrypsin (Bos taurus, UniProt P00766); test: Inhibition of α-chymotrypsin; format: biochemical, mammalian
Description: The unique inactivation mechanism of oxathiazol-2-ones led to an examination of selectivity of these compounds among non-proteasomal proteases, such as chymotrypsin, trypsin, cathepsin B, and matrix metalloproteinase (MMP)-2, representatives of the serine-, cysteine-, and matrix metalloproteinase classes. […] In contrast to the proteasome's N-terminal Thr active site residue, chymotrypsin's active site Ser residue is positioned internally. Given the lack of a terminal NH2 group, the acyl-enzyme intermediate formed by reaction of oxathiazol-2-one with the γ-OH of chymotrypsin's active site Ser can undergo either aqueous hydrolysis to reactivate the enzyme or regeneration of oxathiazol-2-one by the released —OH or —SH group attacking —CO-γO-Ser.

Mtb H37Rv = test: Mycobactericidal activity against Mtb (CFU); format: cell-based, Mycobacterium tuberculosis
Mtb PrcAB-OG [1] = molecular target: T1, Mtb PrcAB-OG (Mycobacterium tuberculosis, UniProt P9WHT9); test: biochemical; format: biochemical
T1 construct: made in house; host or cells: E. coli
Target sequence in this assay (P9WHT9 58-291): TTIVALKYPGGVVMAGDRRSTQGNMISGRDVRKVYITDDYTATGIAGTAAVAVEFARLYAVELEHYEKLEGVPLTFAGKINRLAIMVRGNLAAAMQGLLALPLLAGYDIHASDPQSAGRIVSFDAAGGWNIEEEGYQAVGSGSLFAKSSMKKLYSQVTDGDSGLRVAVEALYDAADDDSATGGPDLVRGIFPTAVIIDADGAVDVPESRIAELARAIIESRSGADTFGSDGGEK

[2] = molecular target: human 20S-β5 (Hu20S PA28) (Homo sapiens, UniProt P28074); test: Kinetics of inhibition of human 20S proteasome β5 site in presence of PA28; format: biochemical
Mtb proteasome [3] = molecular target: T2, Mtb proteasome (Mycobacterium tuberculosis, UniProt P9WHT9); format: biochemical; conditions: dialysis 18 hours against inhibitor-free buffer
T2 construct: made in house; host or cells: E. coli

human proteasome = human proteasome (Homo sapiens, UniProt P28072+P28074+Q99436); test: Preliminary inhibition studies of human proteasome with oligopeptide substrates
Mtb proteasome [4] = molecular target: T2, Mtb proteasome; test: Preliminary inhibition studies of Mtb proteasome with oligopeptide substrates; format: biochemical
human lung fibroblasts = test: Cytotoxicity, human lung fibroblasts; format: cell-based; conditions: up to 50 μM, 4 days
Experimental: (§1) Given that proteasome-inhibiting oxathiazol-2ones killed mycobacteria, their impact on the survival of mammalian cells was tested. […] In contrast, less than 10% of Vero cells remained viable after 4-day exposure to 25 nM bortezomib. Finally, because most Mtb in nature resides in human macrophages, we exposed human monocyte-derived macrophages (mostly multinucleated giant cells) to 100 μM GL3, GL5 or GL6 for 7 days.

[5] = system: human monocyte-derived macrophages; test: Cytotoxicity, human monocyte-derived macrophages; format: cell-based; conditions: 7 days
Experimental: as §1

human skin fibroblasts = test: Cytotoxicity, human skin fibroblasts; format: cell-based; conditions: up to 50 μM, 4 days
Experimental: as §1

[6] = system: Vero monkey kidney epithelial cells; test: Cytotoxicity, Vero cells; format: cell-based; conditions: for cytotoxicity: up to 50 μM, 4 days
Experimental: as §1

Mtb PrcAB-OG [7] = molecular target: T1, Mtb PrcAB-OG; format: biochemical
Target sequence in this assay (P9WHT9 58-291): as above
Target sequence in this assay (P9WHU1 9-248 partner, looked up, natural form): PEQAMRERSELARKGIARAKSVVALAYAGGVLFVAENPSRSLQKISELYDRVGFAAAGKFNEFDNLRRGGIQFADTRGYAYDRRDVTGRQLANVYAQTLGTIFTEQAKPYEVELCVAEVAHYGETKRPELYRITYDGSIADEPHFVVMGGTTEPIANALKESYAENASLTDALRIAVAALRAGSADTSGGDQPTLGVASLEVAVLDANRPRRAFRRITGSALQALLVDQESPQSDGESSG

[8] = system: mouse macrophage-like RAW264.7 cells; test: Cytotoxicity, RAW264.7 cells; format: cell-based; conditions: up to 50 μM, 4 days
Experimental: as §1

Mtb PrcAB-OG [9] = test: biochemical; format: biochemical, Mycobacterium tuberculosis
[10] = molecular target: proteasome in M. bovis BCG (Mycobacterium bovis, UniProt A1KKF3); test: cell-based; conditions: read-out: intrabacterial proteasome inhibition
[11] = Mycobacterium tuberculosis, H37RV, 96 h; read-out: Mtb killing (50 μM)
[12] = Table 1, read-out: kobs/[I] Mtb-OG
[13] = 50 μM, 4 days, Mtb exposed overnight to 100 μM DETA
[14] = 50 μM, 4 days, Mtb exposed overnight to 100 μM DETA-NO

T2 sequence (P9WHT9 58-291): as the sequence (P9WHT9 58-291) above
T2 sequence (P9WHU1 9-248 partner, looked up, natural form): as the sequence (P9WHU1 9-248 partner, looked up, natural form) above
Sequence of proteasome in M. bovis BCG (A1KKF3 whole entry, looked up): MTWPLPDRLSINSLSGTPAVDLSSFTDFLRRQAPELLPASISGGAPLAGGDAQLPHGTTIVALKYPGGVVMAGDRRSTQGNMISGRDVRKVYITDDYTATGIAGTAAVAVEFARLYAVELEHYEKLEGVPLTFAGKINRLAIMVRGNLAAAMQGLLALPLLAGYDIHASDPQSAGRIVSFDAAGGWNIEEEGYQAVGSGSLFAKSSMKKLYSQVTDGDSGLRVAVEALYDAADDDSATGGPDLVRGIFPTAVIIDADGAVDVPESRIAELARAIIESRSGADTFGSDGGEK

Structure (SMILES): Cc1ccc(-c2nsc(=O)o2)s1 [HT1044]
- log reduction at 25 µM (M. bovis BCG): 1.7
- IC50 (α-chymotrypsin): 8.02 µM
- log reduction at 50 µM (Mtb H37Rv; [11]): 2
- kinact/KI (Mtb PrcAB-OG [1]; [12]): 1070 M⁻¹ s⁻¹
- kinact/KI ([2]; read-out: kobs/[I] Hu20S PA28): 148 M⁻¹ s⁻¹

Structure (SMILES): C[C@@]12OC(=O)[C@]1([C@@H](O)[C@@H]1C=CCCC1)NC(=O)[C@@H]2CCCl [NPI-0052]
- activity recovered after dialysis (Mtb proteasome [3]): did not restore the activity

Structure (SMILES): O=c1oc(-c2ccccn2)ns1 [HT1043]
- log reduction at 25 µM (M. bovis BCG): 1
- IC50 (α-chymotrypsin): 16.6 µM
- log reduction at 50 µM (Mtb H37Rv; [11]): 1.8
- kinact/KI (Mtb PrcAB-OG [1]; read-out: kobs/[I] Mtb-OG): 460 M⁻¹ s⁻¹
- kinact/KI ([2]; read-out: kobs/[I] Hu20S PA28): 0.2 M⁻¹ s⁻¹

Structure (SMILES): O=c1oc(-c2cccc([N+](=O)[O-])c2)ns1 [HT1042]
- log reduction at 25 µM (M. bovis BCG): 2
- IC50 (α-chymotrypsin): 3.14 µM
- log reduction at 50 µM (Mtb H37Rv; [11]): 1.7
- kinact/KI (Mtb PrcAB-OG [1]; read-out: kobs/[I] Mtb-OG): 729 M⁻¹ s⁻¹
- kinact/KI ([2]; read-out: kobs/[I] Hu20S PA28): 10.3 M⁻¹ s⁻¹

Structure (SMILES): Cc1cc(-c2nsc(=O)o2)c(S(C)(=O)=O)s1 [GL6]
- inhibition of human proteasome (human proteasome): inhibited neither
- inhibition of Mtb proteasome (Mtb proteasome [4]): inhibited neither
- cytotoxicity (human lung fibroblasts): no evident cytotoxicity
- morphologic sign of cytotoxicity ([5]; 100 μM): no morphologic sign of cytotoxicity
- cytotoxicity (human skin fibroblasts): no evident cytotoxicity
- cytotoxicity [6]: no evident cytotoxicity
- reduction of number of CFU (Mtb H37Rv; [13]): did not lead to a reduction of CFU
- reduction of number of CFU (Mtb H37Rv; [14]): did not lead to a reduction of CFU
- prevention of β-casein degradation by Mtb proteasome (Mtb PrcAB-OG [7]): but not GL6
- cytotoxicity [8]: no evident cytotoxicity

Structure (SMILES): COc1cccc(-c2nsc(=O)o2)c1 [HT1054]
- log reduction at 25 µM (M. bovis BCG): > 3
- IC50 (α-chymotrypsin): 2.19 µM
- log reduction at 50 µM (Mtb H37Rv; [11]): 2
- kinact/KI (Mtb PrcAB-OG [1]; read-out: kobs/[I] Mtb-OG): 636 M⁻¹ s⁻¹
- kinact/KI ([2]; read-out: kobs/[I] Hu20S PA28): 14.8 M⁻¹ s⁻¹

Structure (SMILES): O=c1oc(-c2ccc([N+](=O)[O-])cc2)ns1 [HT1041]
- log reduction at 25 µM (M. bovis BCG): 0.8
- IC50 (α-chymotrypsin): 2.08 µM
- log reduction at 50 µM (Mtb H37Rv; [11]): 1.7
- kinact/KI (Mtb PrcAB-OG [1]; read-out: kobs/[I] Mtb-OG): 598 M⁻¹ s⁻¹
- kinact/KI ([2]; read-out: kobs/[I] Hu20S PA28): 12.9 M⁻¹ s⁻¹

Structure (SMILES): O=c1oc(-c2cc([N+](=O)[O-])cs2)ns1 [HT1016]
- log reduction at 25 µM (M. bovis BCG): > 3
- IC50 (α-chymotrypsin): 5.87 µM
- log reduction at 50 µM (Mtb H37Rv; [11]): 2.2
- kinact/KI (Mtb PrcAB-OG [1]; [12]): 732 M⁻¹ s⁻¹
- kinact/KI ([2]; read-out: kobs/[I] Hu20S PA28): 12.3 M⁻¹ s⁻¹

Structure (SMILES): Cc1sc(-c2nsc(=O)o2)cc1[N+](=O)[O-] [HT1171]
- kinact/KI (Mtb PrcAB-OG [1]; [12]): 3490 M⁻¹ s⁻¹

Structure (SMILES): O=c1oc(-c2ccco2)ns1 [HT1113]
- log reduction at 25 µM (M. bovis BCG): 1
- IC50 (α-chymotrypsin): 22.7 µM
- log reduction at 50 µM (Mtb H37Rv; [11]): 2
- kinact/KI (Mtb PrcAB-OG [1]; [12]): 435 M⁻¹ s⁻¹
- kinact/KI ([2]; read-out: kobs/[I] Hu20S PA28): 10.1 M⁻¹ s⁻¹

Structure (SMILES): O=c1oc(-c2ccccc2)ns1 [HT1146]
- IC50 (α-chymotrypsin): 10 µM
- kinact/KI (Mtb PrcAB-OG [1]; [12]): 409 M⁻¹ s⁻¹
- kinact/KI ([2]; read-out: kobs/[I] Hu20S PA28): 31.3 M⁻¹ s⁻¹

Structure (SMILES): Cc1cccc(-c2nsc(=O)o2)c1 [HT1118]
- log reduction at 25 µM (M. bovis BCG): 0.8
- IC50 (α-chymotrypsin): 15.8 µM
- log reduction at 50 µM (Mtb H37Rv; [11]): 1.7
- kinact/KI (Mtb PrcAB-OG [1]; read-out: kobs/[I] Mtb-OG): 133 M⁻¹ s⁻¹
- kinact/KI ([2]; read-out: kobs/[I] Hu20S PA28): 11.3 M⁻¹ s⁻¹

Structure (SMILES): O=c1oc(-c2cccc(F)c2)ns1 [HT1071]
- log reduction at 25 µM (M. bovis BCG): > 3
- IC50 (α-chymotrypsin): 2.67 µM
- log reduction at 50 µM (Mtb H37Rv; [11]): 2.2
- kinact/KI (Mtb PrcAB-OG [1]; read-out: kobs/[I] Mtb-OG): 1060 M⁻¹ s⁻¹
- kinact/KI ([2]; read-out: kobs/[I] Hu20S PA28): 31.3 M⁻¹ s⁻¹

Structure (SMILES): CC(C)C[C@H](NC(=O)[C@H](Cc1ccccc1)NC(=O)c1cnccn1)B(O)O [bortezomib, reference compound]
- morphologic sign of cytotoxicity ([5]; 0.5 μM): rounded up or appeared to disintegrate
- Vero cells remaining viable ([6]; 25 nM, 4-day exposure): less than 10%
- activity recovered after dialysis (Mtb proteasome [3]): 70%

Structure (SMILES): COc1cc(OC)cc(-c2nsc(=O)o2)c1 [HT1147]
- IC50 (α-chymotrypsin): 83.9 µM
- kinact/KI (Mtb PrcAB-OG [1]; [12]): 45.8 M⁻¹ s⁻¹

Structure (SMILES): Cc1ccc(-c2nsc(=O)o2)cc1 [HT1117]
- IC50 (α-chymotrypsin): 3.67 µM
- kinact/KI (Mtb PrcAB-OG [1]; [12]): 433 M⁻¹ s⁻¹
- kinact/KI ([2]; read-out: kobs/[I] Hu20S PA28): 53.4 M⁻¹ s⁻¹

Structure (SMILES): O=c1oc(-c2cccc(C(F)(F)F)c2)ns1 [HT1086]
- IC50 (α-chymotrypsin): 48.1 µM
- kinact/KI (Mtb PrcAB-OG [1]; [12]): 155 M⁻¹ s⁻¹
- kinact/KI ([2]; read-out: kobs/[I] Hu20S PA28): 0.4 M⁻¹ s⁻¹

Structure (SMILES): O=c1oc(-c2cnccn2)ns1 [5-(pyrazin-2-yl)-1,3,4-oxathiazol-2-one]
- inhibition of Mtb proteasome (Mtb proteasome [4]): found to inhibit the Mtb proteasome, albeit less potently than GL5

Structure (SMILES): CSc1sc(C)cc1-c1nsc(=O)o1 [GL5]
- reduction of colony forming units (CFU) (M. bovis BCG; 25 μM, 4 days): 400 fold
- reduction of colony forming units (CFU) (M. bovis BCG; 50 μM, 4 days): more than 2000 fold
- log reduction at 25 µM (M. bovis BCG): > 2
- killing of BCG (M. bovis BCG; alone and with DETA-NO 50 μM, 4 days): able to kill BCG
- cytotoxicity (human lung fibroblasts): no evident cytotoxicity
- morphologic sign of cytotoxicity ([5]; 100 μM): no morphologic sign of cytotoxicity
- IC50 (α-chymotrypsin): 0.064 µM
- Ki (α-chymotrypsin; reversible, time-independent inhibition): 64 nM
- cytotoxicity (human skin fibroblasts): no evident cytotoxicity
- cytotoxicity [6]: no evident cytotoxicity
- reduction of number of CFU (Mtb H37Rv; [13]): not if they had been exposed to DETA
- reduction of number of CFU (Mtb H37Rv; [14]): 47 fold
- log reduction at 50 µM (Mtb H37Rv; Mycobacterium tuberculosis, H37RV, 96 h, read-out: Mtb killing (50 μM)): 1.4
- activity recovered after dialysis (Mtb proteasome [3]): did not restore the activity
- Hill coefficient (Mtb PrcAB-OG) (Mtb PrcAB-OG [1]): 1
- effect of substrate concentration on rate of inactivation (Mtb PrcAB-OG [1]): Increasing substrate concentration reduced the rate of proteasome inactivation
- kinact/K (Mtb PrcAB-OG [1]; Mtb PrcAB-OG, corrected for substrate competition, […]): 625 ± 12.2^b M^−1s^−1
- kinact/KI (Mtb PrcAB-OG [1]; [12]): 376 M⁻¹ s⁻¹
- kinact/KI (Mtb PrcAB-OG [1]; corrected for substrate competition, read-out: kinact/K for GL5 vs Mtb proteasome): 624 ± 12.2 M⁻¹ s⁻¹
- kinact/KI (Mtb PrcAB-OG [1]; slope of kobs vs [I], not corrected for substrate competition, read-out: apparent value of kobs/[I]): 476 ± 9.3 M⁻¹ s⁻¹
- improvement in species selectivity ratio relative to bortezomib (Mtb PrcAB-OG [9]): ~1160 fold
- selectivity toward Mtb proteasome over human β5 proteasome subunit (Mtb PrcAB-OG [9]): 64 fold
- Ratio (Mtb PrcAB-OG [9]; kobs/[I] Mtb-OG versus Hu20S PA28): 1033
- inhibition at 10 µM [10]: ≥ 50%
- cytotoxicity [8]: no evident cytotoxicity
- reversibility of inactivation of human proteasome β5 subunit ([2]; plots of kobs vs [I] not passing through origin): reversible
- kinact/KI ([2]; read-out: kobs/[I] H20S-β5): 9.8 ± 1.3 M⁻¹ s⁻¹
- kinact/KI ([2]; read-out: kobs/[I] Hu20S PA28): 0.4 M⁻¹ s⁻¹

Reference: patent US20110118274A1, “PROTEASOME INHIBITORS AND THEIR USE IN TREATING PATHOGEN INFECTION AND CANCER” (CORNELL RESEARCH FOUNDATION, INC., priority 2007, published 2011)
